Laboratory results: patent US5272164A, “Carboximidamide derivatives” (Kirin Beer Kabushiki Kaisha, priority 1988, dated 1993)

Legend:
potassium channel [1] = details: in words; Trends in Pharmacological Sciences, 8, 283, 1987; cited from earlier work
potassium channel [2] = experiment: Potassium channel activating effect (86Rb efflux from rat thoracic aortae); format: cell-based, male Wistar rats; details: 10^-4 M, 8 minutes, percent of efflux before application
Experimental: Male Wistar rats (weighing 250-350 g) were dehematized to death, and thoracic aortae were rapidly isolated. The aorta was opened along the longitudinal axis to prepare a flat sheet. The preparation was loaded with ^86 Rb in the Krebs-Ringer solution which contained ^86 Rb in the concentration of 10 μCi/ml and was gassed with 95% 02 5% CO2 at 37° C. for 2 hours. The preparation was then transferred to a Krebs-Ringer solution not containing ^86 Rb, and washed to remove excess radioactivity for 18 minutes by refreshing the solution every 2 minutes. Finally the preparation was placed into a Krebs-Ringer solution containing each compound (10^-4 M) for 8 minutes.
The amount of ^86 Rb efflux from the preparation in each period was determined with a γ-counter.
The increment in efflux rate during the application of the compound was expressed as percent of the efflux before the application of the compound.

isolated rat heart = experiment: Effect on isolated rat heart (Langendorff's method); design: species or system male rats; details: 1 × 10^-8 mol/min, n=3, mean ± S.D.; for Coronary Perfusate Flow: ** p < 0.01 as compared with nicorandil
Experimental: The effect of the compound of the present invention on heart of rats was examined by using the Langendorff's method [test compound: N-cyano-N'-(2-nitroxyethyl)-3-pyridinecarboximidamide (compound (13))]. Hearts were excised from male rats (weighing 250-350 g) and perfused at 80 cmH2 O in a Langendorff fashion. Krebs-Hensaleit bicarbonate solution (pH 7.4, 37° C.) containing an 11 mM glucose which was oxygenated with 95% O2 -5% CO2 gas mixture was used as a perfusate. The left ventricular pressure was recorded by inserting a latex balloon into the left ventricle, and heart rate was determined from the pulse of it. Coronary perfusate flow as also measured with an electromagnetic flowmeter. The experiments were carried out by perfusing a perfusate containing the compound (13) for 10 minutes after an initial equilibration period for 30 minutes. As the control compound, nicorandil which has an effect opening potassium channel and is similar to the test compound in structure was used. The changes in the coronary perfusate flow and the cardiac function (heart rate×left ventricular pressure) caused by these compounds were expressed as percent changes from the preperfusion values of the compound (13) or nicorandil.

isolated heart of rats = experiment: Effect on myocardiac injury induced by re-perfusion after ischemia (isolated rat heart); details: mean ± SD
Experimental: The cardiac muscle protecting effect of the compound of the present invention was tested by using the isolated heart of rats [test compound: N-cyano-N'-(2-nitroxyethyl)- 3-pyridinecarboximidamide (compound (13))]. The Langendorff's method was used in the same manner as in the aforementioned Referential Example 1)-6. The isolated heart was perfused with a perfusate for 30 minutes and then with a perfusate containing the test compound for 10 minutes, and perfusion was stopped so that the heart was in the so-called "ischemic state". Pacing was performed during the ischemia. […] Parameters of cardiac function after the onset of re-perfusion was monitored for 30 minutes, and the heart was quickly freezed. The amount of ATP in the heart muscle was extracted with perchloric acid and determined by HPLC. Nicorandil was used as a control.
The recovery rate of the cardiac function (heart rate×left ventricular pressure) after onset of reperfusion was calculated based on the cardiac function prior to the perfusion of the compound (13) and nicorandil as 100%. The amount of ATP in the heart muscle was also determined.

SMILES	Increment of Efflux (potassium channel [2])	Coronary Perfusate Flow (isolated rat heart)	further results
CC1(C)Oc2ccc(C#N)cc2[C@@H](N2CCCC2=O)[C@H]1O (relative stereo) [chromakalim]			potassium channel activating effect (potassium channel [1]): potassium channel activating effect
N#CNC(=NCc1ccccc1)c1cccnc1 [(17), N-cyano-N'-benzyl-3-pyridinecarboximidamide]	135.41%		
N#CNC(=NCCc1ccccc1)c1cccnc1 [(27), N-cyano-N'-(2-phenylethyl)-3-pyridinecarboximidamide]	206.61%		
N#CNC(=NCCO[N+](=O)[O-])c1ccncc1 [(41), N-cyano-N'-(2-nitroxyethyl)-4-pyridinecarboximidamide]	126.88%		
N#CNC(=NCCO[N+](=O)[O-])c1cccnc1 [Compound (13), N-cyano-N'-(2-nitroxyethyl)-3-pyridinecarboximidamide]	213.53%	51.3 ± 3.2 % change	Recovery rate of cardiac function (isolated heart of rats; 1 × 10^-7 mole/min, n=3, ** p < 0.01 vs physiological saline group): 67.5 ± 6.0%
O=C(NCCO[N+](=O)[O-])c1cccnc1 [Nicorandil]		3.3 ± 5.6 % change	Cardiac Function (heart rate×left ventricular pressure) (isolated rat heart): 3.7 ± 6.7 percent change; Recovery rate of cardiac function (isolated heart of rats; 1 × 10^-6 mole/min, n=4): 12.7 ± 8.2%
